Earlier results in patent US20160017431A1, “Methods for Predicting EGFR Tyrosine Kinase Inhibitor Efficacy” (Driver Group, priority 2014, published 2016).

Test system: EGFR mutants carrying the T790M mutation
Conditions: statement 'has been shown', no data given

SMILES: COc1cc2ncnc(Nc3ccc(F)c(Cl)c3)c2cc1NC(=O)/C=C/CN1CCCCC1 [Dacomitinib]
- inhibition of the tyrosine kinase activity of EGFR mutants carrying the T790M mutation: able to inhibit the tyrosine kinase activity

SMILES: COc1cc(N2CCC(N(C)C)CC2)ccc1Nc1ncc(Cl)c(Nc2ccccc2P(C)(C)=O)n1 [AP26113]
- inhibition of the tyrosine kinase activity of EGFR mutants carrying the T790M mutation: able to inhibit the tyrosine kinase activity
